Reference: patent US20150148372A1, “BICYCLIC HETEROCYCLES AS BET PROTEIN INHIBITORS” (Incyte Corporation, priority 2013, published 2015)

Legend:
BRD4-BD2 = biological target: T1, BRD4-BD2 (Homo sapiens, UniProt O60885); test: BRD4 AlphaScreen assay, BD2; type: binding; conditions: H4Ac4 peptide, 20 nM BRD4-BD2, read-out: BRD4 BD-2 enzyme IC50
T1 construct: 20 nM (BRD4-BD2, BPS Bioscience #31041); purchased BPS Bioscience 31041
Description: (§1) BRD4-BD1 and BRD4-BD2 assays were conducted in white 384-well polystyrene plate in a final volume of 20 μL for BD1 and 40 μL for BD2. Inhibitors were first serially diluted in DMSO and added to the plate wells before the addition of other reaction components. The final concentration of DMSO in the assay was 1.25% (BD1) and 0.83% (BD2). The assays were carried out at room temperature for 75 min. in the assay buffer (50 mM HEPES, pH 7.4, 100 mM NaCl, 0.05% CHAPS, 0.01% BSA), containing 50 nM Biotin-labeled tetra-acetylated histone H4 peptide (H4Ac4), 3.8 nM (BRD4-BD1, BPS Bioscience #31040) or 20 nM (BRD4-BD2, BPS Bioscience #31041). The reaction followed by the addition of 20 μL of assay buffer supplemented with Streptavidin donor beads (PerkinElmer 6760002) and GSH Acceptor beads (PerkinElmer-AL 109C) at 4 μg/mL under reduced light. After plate sealing, the plate was incubated in the dark at room temperature for 75 min. before reading on a PHERAstar FS plate reader (BMG Labtech). IC50 determination was performed by fitting the curve of percent control activity versus the log of the inhibitor concentration using the GraphPad Prism 5.0 software. IC50 data for the Examples is presented in Table 1 as determined by Assay A1.

BRD4-BD1 = biological target: T2, BRD4-BD1 (Homo sapiens, UniProt O60885); test: BRD4 AlphaScreen assay, BD1; type: binding; conditions: H4Ac4 peptide, 3.8 nM BRD4-BD1, read-out: BRD4 BD-1 enzyme IC50
T2 construct: 3.8 nM (BRD4-BD1, BPS Bioscience #31040); purchased BPS Bioscience 31040
Description: as §1

Row | Structure (SMILES) | IC50 (BRD4-BD2) [nM] | IC50 (BRD4-BD1) [nM]
1 | Cn1cc(-c2c(Oc3ccc(F)cc3F)ccc3[nH]cnc23)c2cc[nH]c2c1=O [Example 2, 4-[5-(2,4-Difluorophenoxy)-1H-benzimidazol-4-yl]-6-methyl-1,6-dihydro-7H-pyrrolo[2,3-c]pyridin-7-one] | ≤ 100 | 1000 to 10000
2 | Cn1cc(-c2c(Oc3ccc(F)cc3F)ccc3[nH]c(=O)[nH]c23)c2cc[nH]c2c1=O [Example 1, 5-(2,4-Difluorophenoxy)-4-(6-methyl-7-oxo-6,7-dihydro-H-pyrrolo[2,3-c]pyridin-4-yl)-1,3-dihydro-2H-benzimidazol-2-one] | 100 to 1000 | 1000 to 10000
